Test results: ChEMBL document CHEMBL4706679, “Targeting Necrosis: Elastase-like Protease Inhibitors Curtail Necrotic Cell Death Both In Vitro and in Three In Vivo Disease Models” (J Med Chem, 2021)
Active and inactive are the calls of the source. The rule behind the calls is not given here. Where a SMILES comes first, the peptide text is derived from it. The star is where a group is joined. MeOSuc = COC(=O)CCC(=O)*; Cbz = O=C(OCc1ccccc1)*; CH2Cl = ClC*

Assays:
[1] = tested on: PC-12; test: Protection against KCN-induced necrosis in […] cells assessed as reduction in KCN-induced cell death at 10 to 300 uM incubated for 5 hrs by LDH release assay; assay type: functional, cell-based; details: dose 10-300 µM
[2] = tested on: PC-12; test: Protection against KCN-induced necrosis in […] cells assessed as reduction in KCN-induced cell death at 20 to 100 uM incubated for 5 hrs by LDH release assay; assay type: functional, cell-based; details: dose 20-100 µM
[3] = tested on: U-937; test: Inhibition oligomycin-induced elastase like activity in human U-937 cells at 100 uM by substrate gel electrophoresis; assay type: cell-based
[4] = tested on: U-937; test: Inhibition anti-Fas antibody-induced elastase like activity in human U-937 cells at 100 uM by substrate gel electrophoresis; assay type: cell-based
[5] = (§1) Inhibition KCN-induced elastase like activity in human U-937 cells at 0.01 to 100 uM using substrate MAAPV; assay type: cell-based
[6] = tested on: U-937; test: as §1; assay type: cell-based; details: dose 0.01-100 µM
[7] = tested on: Mus musculus; test: Protection against necrosis in C57BL/6J mouse model of traumatic brain injury assessed as decrease in necrotic space in brains at 100 ug, icv measured 24 hrs post injury by TTC staining based analysis; assay type: functional; design: scale not given: the % may be the effect or the level left; details: dose 100 µg
[8] = Toxicity in sham control C57BL/6J mouse at 100 ug, icv; details: in vivo, icv_or_intrathecal, dose 100 µg
[9] = tested on: Mus musculus; test: Protection against necrosis in C57BL/6J mouse model of traumatic brain injury assessed as decrease in neuronal damage in brain at 100 ug, icv measured 1 hr post injury by neurological severity score based analysis; assay type: functional, organism-based; details: dose 100.0 µg
[10] = tested on: Mus musculus; test: Protection against necrosis in C57BL/6J mouse model of paracetamol-induced […] assessed as reduction in liver ALT levels at 10 mg/kg, ip dosed 4 hrs after paracetamol injection and measured 24 hrs post paracetamol injection by; assay type: functional, organism-based; details: time 28.0 hrs
[11] = tested on: Mus musculus; test: Protection against necrosis in C57BL/6J mouse model of paracetamol-induced […] assessed as reduction in liver GPT levels at 10 mg/kg, ip dosed 4 hrs after paracetamol injection and measured 24 hrs post paracetamol injection by; assay type: functional, organism-based; details: time 28.0 hrs
[12] = tested on: Mus musculus; test: Protection against necrosis in C57BL/6J mouse model of paracetamol-induced […] assessed as reduction in liver ALT levels at 30 mg/kg, ip dosed 4 hrs after paracetamol injection and measured 24 hrs post paracetamol injection by; assay type: functional; design: scale not given: the % may be the effect or the level left; details: time 28 hrs
[13] = tested on: Mus musculus; test: Protection against necrosis in C57BL/6J mouse model of paracetamol-induced […] assessed as reduction in liver GOT levels at 10 mg/kg, ip dosed 4 hrs after paracetamol injection and measured 24 hrs post paracetamol injection by; assay type: functional, organism-based; details: time 28.0 hrs
[14] = tested on: Mus musculus; test: Protection against necrosis in C57BL/6J mouse model of paracetamol-induced […] assessed as reduction in liver AST levels at 10 mg/kg, ip dosed 4 hrs after paracetamol injection and measured 24 hrs post paracetamol injection by; assay type: functional, organism-based; details: time 28.0 hrs
[15] = tested on: Mus musculus; test: Protection against necrosis in C57BL/6J mouse model of paracetamol-induced […] assessed as reduction in liver AST levels at 30 mg/kg, ip dosed 4 hrs after paracetamol injection and measured 24 hrs post paracetamol injection by; assay type: functional; design: scale not given: the % may be the effect or the level left; details: time 28 hrs
[16] = tested on: Mus musculus; test: Protection against necrosis in C57BL/6J mouse model of paracetamol-induced […] assessed as reduction in liver GPT levels at 30 mg/kg, ip dosed 4 hrs after paracetamol injection and measured 24 hrs post paracetamol injection by; assay type: functional; design: scale not given: the % may be the effect or the level left; details: time 28 hrs
[17] = tested on: Mus musculus; test: Protection against necrosis in C57BL/6J mouse model of paracetamol-induced […] assessed as reduction in liver GOT levels at 30 mg/kg, ip dosed 4 hrs after paracetamol injection and measured 24 hrs post paracetamol injection by; assay type: functional; design: scale not given: the % may be the effect or the level left; details: time 28 hrs
[18] = tested on: Mus musculus; test: Protection against necrosis in Balb/c mouse model of model of myocardial infarction/reperfusion assessed as reduction in infarct size at 30 mg/kg, iv followed by ischemia and reperfusion and subsequent second dosing at 30 mg/kg, iv and measured after 6 hrs post reperfusion by TTC staining based analysis; assay type: functional; design: scale not given: the % may be the effect or the level left; details: dose 60 mg/kg
[19] = tested on: U-937; test: Inhibition KCN-induced elastase like activity in human U-937 cells using substrate MAAPV; assay type: cell-based

## CN1C(=O)Cc2ccc(-c3ccc(C[C@@H](C#N)NC(=O)[C@H]4N[C@@H]5CC[C@H]4C5)c(F)c3)cc21
[1]
  Activity: Dose-dependent effect

## CC(C)(C)C(=O)Oc1ccc(S(=O)(=O)Nc2ccccc2C(=O)NCC(=O)O)cc1
[2]
  Activity: Dose-dependent effect

## Cc1ccc(S(=O)(=O)N[C@@H](Cc2ccccc2)C(=O)CCl)cc1
[3]
  inhibition: inactive
[4]
  inhibition: inactive

## COC(=O)CCC(=O)N[C@@H](C)C(=O)N[C@@H](C)C(=O)N1CCC[C@H]1C(=O)N[C@H](C(=O)CCl)C(C)C (MeOSuc-AAPV-CH2Cl)
[5]
  IC50: 2740 nM
[6]
  inhibition: Dose-dependent effect
[7]
  Activity: 50%
[8]
  Activity: Non-Toxic
[9]
  Activity: Active
[1]
  Activity: Dose-dependent effect

## O=C(c1csc(N2CCCCC2)n1)N1CCCC1
[10]
  Activity: Active
[11]
  Activity: Active
[12]
  Activity: 100%
[13]
  Activity: Active
[14]
  Activity: Active
[15]
  Activity: 100%
[16]
  Activity: 100%
[17]
  Activity: 100%

## CCC(=O)N1CCN=C1N1CCN(C)CC1
[18]
  Activity: 30%

## CC(C)C[C@H](NC(=O)N[C@H](C(=O)N[C@@H](CCC(N)=O)C(=O)N[C@@H](C)C=O)C1CCNC(=N)N1)C(=O)O (some centres undefined)
[3]
  inhibition: Active
[4]
  inhibition: Active
[1]
  Activity: inactive

## O=C[C@H](Cc1ccc(O)cc1)NC(=O)[C@H](Cc1ccccc1)NC(=O)OCc1ccccc1 (Cbz-Phe-Tyr-aldehyde)
[19]
  inhibition: inactive

## CCOC(=O)[C@H]1O[C@@H]1C(=O)N[C@@H](CC(C)C)C(=O)NCCC(C)C
[19]
  inhibition: inactive
